# Reference: US11666559B2, “Spiro-lactam compounds, process and uses thereof” (UNIVERSIDADE DE COIMBRA, priority 2017, dated 2023)
# System: HIV
# Experiment: Anti-HIV activity evaluation (HIV type not specified)
# Type: cell-based
# Details: both CCR-tropic isolates and CXCR4-tropic isolates; concentration of 15.2 μM
# Protocol: In an embodiment, TZM-bl cells (AIDS Research and Reference Reagent Program, National Institutes of Health, USA) were cultured in complete growth medium that consists of Dulbecco's minimal essential medium (DMEM) supplemented with 10% fetal bovine serum (FBS), 100 U/ml of penicillin-streptomycin (Gibco/Invitrogen, USA), 1 mM of sodium pyruvate (Gibco/Invitrogen, USA), 2 mM of L-glutamine (Gibco/Invitrogen, USA) and 1 mM of non-essential amino acids (Gibco/Invitrogen, USA).
# In an embodiment, the primary isolates 93AOHDC249, 93AOHDC250, 01PTHDECJN and 03PTHCC9, used in this study were previously isolated, titrated and characterized for co-receptor usage. HIV reference strain SG3.1 was obtained by transfection of HEK293T cells with pSG3.1 (HIV-1) plasmid using Fugene 6 reagent (Roche, Switzerland) according to manufacturer's instructions.
# In an embodiment, the 50% tissue culture infectious dose (TCID50) of the virus was determined in a single-round viral infectivity assay using a luciferase reporter gene assay in TZM-bl cells and calculated using the statistical method of Reed and Muench^27.
# In an embodiment, the antiviral activity of the compounds was determined in a single-round assay with TZM-bl cells as previously described ^26. […] After 48 h of infection, luciferase expression was quantified with the One-Glow luciferase assay substrate reagent (Promega, USA) according to manufacturer's instructions. […] After an incubation of 3 minutes at room temperature to allow complete cell lysis luminescence was measured in Tecan Infinite M200. Background luminescence was measured by using control wells that contained only target cells and GM. […]
# In an embodiment, dose-response curves were estimated from the percentage of inhibition of infection (y-axis) against logo of concentration of each compound (x-axis) using the sigmoidal dose-response equation (variable slope) in GraphPad Prism version 5.00 for Windows (GraphPad Software, San Diego Calif. USA, www.graphpad.com). IC50 and IC90 values were determined from this curve. […]
smiles,measurement,value
CC1(C)S[C@H]2N(C(=O)[C@]23CC=C(C(=O)OCc2ccccc2)[C@@H]3C(=O)c2ccccc2)[C@H]1C(=O)OC(c1ccccc1)c1ccccc1 [BSS-730A],inhibition of the replication,about 100%
